# According to patent US9820951B2, “Pulmonary disease treatment and diagnosis based on Arhgef1” (NATIONAL JEWISH HEALTH, A NON-PROFIT ORGANIZATION, priority 2011, dated 2017):
# What was measured:
# [1] = test system: MMP9; assay: MMP9 production by human alveolar macrophages cultured on fibronectin (gelatin zymography); format: cell-based; conditions: PTA2 1.25, 6.25 and 25 μM, dose-dependent
# From the text: FIG. 14. Human alveolar macrophages produce TXB2 when cultured on fibronectin and thromboxane receptor signaling is required for MMP9 production. A, TXB2 production measured in conditioned media from human macrophages cultured on fibronectin (closed bars) or plastic (open bars) at the indicated cellular concentrations. B, TXB2 measured in conditioned media from macrophages cultured at 0.125×10^6 cells/ml on either plastic (ctl) or FN from four individuals. The data represent the means±S.E. C, gelatin zymogram of conditioned media from cells cultured as indicated and in the presence of increasing doses of the thromboxane receptor antagonist PTA2 (at 1.25, 6.25, and 25 μM, respectively). Below the zymogram is quantitation of MMP9 activity by densitometric analysis.
# Tissue-culture 96-well plates (Costar high binding catalogue number 3590) were coated with 10 μg/ml of murine fibronectin (Molecular Innovations, Nori, Minn.; catalogue number MFBN) or human fibronectin (Molecular Innovations; catalogue number HFBN) in DPBS without Ca^2+ or Mg^2+ (Mediatech, Inc., Manassas, Va.) for 2 h at room temperature. […] PGE2 and TXB2 were measured in conditioned medium by ELISA according to the manufacturer's instructions (ElisaTech, Aurora, Colo.). […]
# For other human studies, we quantitated MMP9 by ELISA in conditioned medium (ELISA TECH, Aurora, Colo.). […]
# [2] = test system: Mmp9; assay: MMP9 activity in BAL of Arhgef1−/− mice after aerosol exposure; format: in vivo, mouse; conditions: inhalation of aerosol 20 min (220 μM PTXA2, 190 μM U-46619), BAL 24 hours later
# Description: FIG. 4. TP signaling is required for MMP9 production in vitro and in vivo. A) Macrophage Mmp9 expression after culture on fibronectin for 24 hrs in media/vehicle (−), 40 nM S1P, 10 μM LPA, 10 nM U-46619 (TP agonist) or 6 μM PTXA2 (TP antagonist). Data represent normalized mean±SE. B) Arhgef1−/− mice (n=16) were exposed to aerosolized PBS (n=16), 220 μM PTXA2 (n=6) or 190 μM U-46619 (n=10) for 20 minutes and BAL harvested 1 day later and MMP activity measured.
compound,measurement,setting,value
"CCCCC[C@@H](O)/C=C/[C@H]1C[C@H]2C[C@@H]([C@@H]1C/C=C\CCCC(=O)O)C2(C)C (relative stereo) [PTXA2, (18-(1alpha,2beta(Z),3alpha(1E,3S*),5alpha))-7-(3-(3-Hydroxy-1-octenyl)-6,6-dimethylbicyclo(3.1.1)hept-2-yl)-5-heptenoic acid]",inhibition of MMP9 production,[1],~90%
same,MMP9 activity in BAL,[2],considerably diminished MMP9 activity
